# According to PMC6133293 (SLAS discovery : advancing life sciences R & D, 2018):
# Target: G551D-CFTR (Homo sapiens, UniProt P13569, G551D)
# Experiment: short-circuit current in FRT cells, positive control potentiator
# Assay type: cell-based
# Chain of G551D-CFTR (P13569 whole entry G551D): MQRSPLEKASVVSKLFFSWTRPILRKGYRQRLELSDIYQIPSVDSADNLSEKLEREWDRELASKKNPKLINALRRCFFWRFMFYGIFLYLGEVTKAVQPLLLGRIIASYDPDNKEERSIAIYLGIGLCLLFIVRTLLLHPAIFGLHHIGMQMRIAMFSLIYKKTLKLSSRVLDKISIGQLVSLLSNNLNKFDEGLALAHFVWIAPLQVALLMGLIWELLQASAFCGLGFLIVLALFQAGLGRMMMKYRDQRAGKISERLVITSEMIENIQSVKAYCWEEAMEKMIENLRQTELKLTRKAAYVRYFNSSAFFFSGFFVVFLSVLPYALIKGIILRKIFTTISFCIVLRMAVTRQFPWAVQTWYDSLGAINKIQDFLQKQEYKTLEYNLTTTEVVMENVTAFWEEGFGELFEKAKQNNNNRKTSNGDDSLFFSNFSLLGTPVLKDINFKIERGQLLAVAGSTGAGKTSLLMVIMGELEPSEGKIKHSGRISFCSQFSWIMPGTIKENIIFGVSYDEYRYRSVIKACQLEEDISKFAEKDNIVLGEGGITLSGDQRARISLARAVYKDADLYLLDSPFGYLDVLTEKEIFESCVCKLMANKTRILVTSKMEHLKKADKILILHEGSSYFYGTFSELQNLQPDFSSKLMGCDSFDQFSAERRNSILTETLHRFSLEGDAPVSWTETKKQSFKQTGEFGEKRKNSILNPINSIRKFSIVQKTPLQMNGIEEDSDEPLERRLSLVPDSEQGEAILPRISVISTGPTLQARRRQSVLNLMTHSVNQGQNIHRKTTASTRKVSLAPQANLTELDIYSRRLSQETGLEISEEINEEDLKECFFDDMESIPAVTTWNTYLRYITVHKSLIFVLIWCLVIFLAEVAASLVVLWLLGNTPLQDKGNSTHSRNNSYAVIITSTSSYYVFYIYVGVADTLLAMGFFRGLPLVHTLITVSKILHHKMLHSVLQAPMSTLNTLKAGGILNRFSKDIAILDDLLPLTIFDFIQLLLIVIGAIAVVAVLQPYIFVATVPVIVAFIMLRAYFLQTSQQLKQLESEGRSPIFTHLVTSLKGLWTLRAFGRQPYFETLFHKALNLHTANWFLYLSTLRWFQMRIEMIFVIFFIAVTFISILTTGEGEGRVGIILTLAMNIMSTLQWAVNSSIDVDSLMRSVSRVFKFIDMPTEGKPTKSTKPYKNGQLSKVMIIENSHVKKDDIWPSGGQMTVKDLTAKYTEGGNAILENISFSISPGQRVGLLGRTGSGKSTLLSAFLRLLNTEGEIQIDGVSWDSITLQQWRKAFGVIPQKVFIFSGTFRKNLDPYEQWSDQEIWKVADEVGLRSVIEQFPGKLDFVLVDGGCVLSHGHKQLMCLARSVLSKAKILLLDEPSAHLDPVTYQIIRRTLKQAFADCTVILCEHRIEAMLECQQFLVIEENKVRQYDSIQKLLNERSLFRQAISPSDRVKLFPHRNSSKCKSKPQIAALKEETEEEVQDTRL
smiles,measurement,value
CC(C)(C)c1cc(C(C)(C)C)c(NC(=O)c2c[nH]c3ccccc3c2=O)cc1O [VX-770],"short-circuit current in FRT cells, positive control potentiator","A-01 did not activate G551D-CFTR at high concentration, with VX-770 shown as the positive control"
